Source: article PMC2365198, “Chemistry and Pharmacokinetics of Gallium Maltolate, a Compound With High Oral Gallium Bioavailability” (Metal-Based Drugs, 2000)
Values joined by “and” are separate entries in the source; they are usually repeats but may differ in a detail not shown here. Equal entries are not always repeated.

Key:
healthy human subjects = experiment: Clinical single-dose escalation study, safety and tolerability
[1] = Stability of dilute aqueous solution as a function of pH (absorbance at 303 nm); format: physicochemical
Solubility in water = format: physicochemical; details: 25 C; listed as GaM
[2] = human, in vivo, po
[3] = Dog bioavailability study (serum gallium); details: healthy young beagle dogs, intraduodenal or oral
[4] = Clinical single-dose escalation study, pharmacokinetics of oral gallium maltolate (serum and urine gallium); details: human; for FAe: cumulative urinary excretion as fraction of administered dose: 72h; for F (V=29.5 L): from V/F
[5] = dog, in vivo, 1.5 mg/kg
[6] = Pharmacokinetics of single oral dose of gallium chloride in cancer patients (data of Collery et al.); format: in vivo, human; details: data of ref 12
[7] = parameters: method as in earlier work; details: human cancer patients, single oral dose 800 mg (317 mg Ga); cited from earlier work
[8] = single oral dose 100 mg [15.7 mg Ga]
[9] = single oral dose 200 mg [31.3 mg Ga]
[10] = single oral dose 300 mg [47.0 mg Ga]
[11] = single oral dose 500 mg [78.4 mg Ga]

Structure (SMILES): Cc1occc(=O)c1[O-].Cc1occc(=O)c1[O-].Cc1occc(=O)c1[O-].[Ga+3] [gallium maltolate, tris(3-hydroxy-2-methyl-4H-pyran-4-onato)gallium]
- Change in renal function (serum creatinine clearance, serum urea, BUN clearance, urinary microglobulin, urinalysis) (healthy human subjects; healthy human subjects, oral): none of the subjects who took oral GaM showed any change in renal function
- Serious treatment-related adverse events (healthy human subjects; healthy human subjects, single oral doses 100-500 mg): no reports of serious treatment-related adverse events
- Subjects reporting possible drug-related adverse events (healthy human subjects; healthy human subjects, single oral doses 100-500 mg, mild headache (100 mg), moderate coughs (200 mg)): Three of the twelve subjects
- Tolerability (healthy human subjects; healthy human volunteers, single oral doses of 100, 200, 300 and 500 mg): very well tolerated
- Dissociation in dilute aqueous solution ([1]; 2.5 x 10^-5 M, pH 5.5-8.0): little dissociation
- Gallium maltolate complex undissociated ([1]; dilute aqueous solution (2.5 x 10^-5 M), pH approximately 5.5 to 8): at least 98%
- Solubility in water (Solubility in water): 10.7 ± 0.9 mg/mL and 24(2) mM
- F, range over doses (from V/F with V 29.5 L) [2]: 0.25-0.40
- Absorption of Ga into blood plasma relative to intraduodenal Ga nitrate [3]: several times higher
- Dose dependence of absorption ([4]; oral, dosage range 100-500 mg): dose proportional
- Urinary Ga excretion, of the administered dose ([4]; oral, over 72h): approximately 2%
- Ae: cumulative urinary excretion of gallium in 72h [4, 8]: 0.35(0.14) mg
- Lag time [4, 8]: 0.32(0.05) h
- FAe: cumulative urinary excretion as fraction of administered dose [4, 8]: 0.022(0.001)
- F (V=29.5 L) [4, 8]: 0.28
- Ae: cumulative urinary excretion of gallium in 72h [4, 9]: 0.66(0.28) mg
- Lag time [4, 9]: 0.42(0.04) h
- FAe: cumulative urinary excretion as fraction of administered dose [4, 9]: 0.021(0.001)
- F (V=29.5 L) [4, 9]: 0.35
- Ae: cumulative urinary excretion of gallium in 72h [4, 10]: 1.11(0.08) mg
- Lag time [4, 10]: 0.24(0.06) h
- FAe: cumulative urinary excretion as fraction of administered dose [4, 10]: 0.023(0.000)
- F (V=29.5 L) [4, 10]: 0.40
- Ae: cumulative urinary excretion of gallium in 72h [4, 11]: 1.37(0.52) mg
- Lag time [4, 11]: 0.20(0.08) h
- FAe: cumulative urinary excretion as fraction of administered dose [4, 11]: 0.018(0.001)
- F (V=29.5 L) [4, 11]: 0.25
- Central compartment excretion half life ([4]; single oral doses 100-500 mg): 17 to 21 h
- Estimated oral gallium bioavailability ([4]; single oral doses 100-500 mg, comparison with published i.v. gallium nitrate data): 25-57%

Structure (SMILES): O=[N+]([O-])[O-].O=[N+]([O-])[O-].O=[N+]([O-])[O-].[Ga+3] [Ga nitrate, gallium nitrate]
- Cmax [5]: 0.31 (0.02) lg/mL
- K01 half life [5]: 0.8(0.2) h
- Tmax [5]: 3.1 (0.4) h
- beta half life [5]: 9.9(2.4) h

Structure (SMILES): [Cl][Ga]([Cl])[Cl] [GaCI3, gallium chloride]
- Gallium bioavailability using the estimated value for V/F ([6]; human cancer patients, single oral dose 800 mg (317 mg Ga)): approximately 0.010
- Estimated oral bioavailability ([6]; human, oral): ≤ 2%
- Estimated V/F [7]: 2862(297) L
